Laboratory results from patent publication US20190298740A1, “METHODS AND COMPOSITIONS FOR TREATING HALLUCINATIONS AND CONDITIONS RELATED TO THE SAME” (Enterin, Inc., priority 2018, published 2019).
Like-named read-outs stand apart in the source and are kept apart here.

Columns and labels:
[1] = Safety and adverse event profile, Phase 2 trial; format: in vivo, human;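 as to Diarrhea, common adverse events by dose: number of subjects experiencing the event at each dose level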;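 as to Nausea, common adverse events by dose: number of subjects experiencing the event at each dose level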;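 as to Vomiting, common adverse events by dose: number of subjects experiencing the event at each dose level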
From the text: Tolerability limits included diarrhea or vomiting.

[2] = Pharmacokinetics of orally administered squalamine (ENT-01), Phase 2 trial; format: in vivo; details: human; for AUC(0-t) / half-life / Cmax / Tmax: po; for Cmax: mean, approximate; for Tmax: read-out: Tmax (median value)
Protocol: PK data were collected on the 10 patients enrolled in Stage 1 and 10 patients enrolled in Stage 2 to determine the extent of systemic absorption. In Stage 1, PK data were obtained at each visit, pre-medication, at 1, 2, 4, 8 and 24 hours (Table 11). In Stage 2, PK was measured on days 1 and 6 of the randomization period pre-medication, at 1, 2, 4 and 8 hours (Table 12).
The mean Cmax, Tmax and T1/2 and AUC of the squalamine ion following squalamine (ENT-01) oral dosing for Stage 1 patients. The PK analyses are only approximate, as the lower limit of the validated concentration range was 10 ng/ml; most of the measured concentrations fell below that value. The mean Cmax, Tmax and T1/2 and AUC of the squalamine ion following squalamine (ENT-01) oral dosing for Stage 2 patients. The PK analyses are only approximate, as the lower limit of the validated concentration range was 0.5 ng/ml.

[3] = test system: patients with PD; test: Sleep diary: total sleep time and REM-behavior disorder; format: in vivo, human
From the text: (5) Sleep Diary (participants completed a sleep diary on a daily basis throughout the study. The diaries included time into bed and estimated time to sleep as well as wake time and duration during the night);
Exploratory end-points, in addition to constipation, included for example, (i) depression assessed using the Beck Depression Inventory (BDI-II) (Steer et al. 2000) and Unified Parkinson's Disease Rating Scale (UPDRS); (ii) cognition assessed using the Mini Mental State Examination (MMSE) (Palsteia et al. 2018), Unified Parkinson's Disease Rating Scale (UPDRS), and Trail Making Test (TMT); (iii) sleep and REM-behavior disorder (RBD) using a daily sleep diary, I-Button Temperature Assessment, a REM sleep behavior disorder (RBD) questionnaire (RBDQ) (Stiasny-Kolster et al. 2007), and the UPDRS; (iv) hallucinations assessed using the PD hallucinations questionnaire (PDHQ) (Papapetropoulos et al. 2008), the UPDRS, and direct questioning; (v) fatigue using the Parkinson's Disease Fatigue Scale (PFS-16) and the UPDRS; (vi) motor functions using the UPDRS; and (vii) non-motor functions using the UPDRS.

[4] = test system: C. elegans αS model; details: in vivo, C. elegans model of PD; cited from earlier work
[5] = test system: mouse models of PD; details: cited from earlier work
[6] = in vivo, 50 mg, Stage 1, 50 mg oral, 10 patients
[7] = in vivo, 100 mg, Stage 2, 100 mg oral daily, 4 patients (2 visits each)
[8] = in vivo, 175 mg, Stage 1, 175 mg oral, 7 patients
[9] = in vivo, 175 mg, Stage 2, 175 mg oral daily, 5 patients (2 visits each)
[10] = plasma, 25 mg, Stage 1, 25 mg oral, 9 patients
[11] = plasma, 75 mg, Stage 1, 75 mg oral, 9 patients
[12] = plasma, 75 mg, Stage 2, 75 mg oral daily, 1 patient (2 visits)
[13] = plasma, 100 mg, Stage 1, 100 mg oral, 9 patients
[14] = plasma, 125 mg, Stage 1, 125 mg oral, 9 patients
[15] = plasma, 200 mg, Stage 1, 200 mg oral, 6 patients

CC(C)[C@@H](CC[C@@H](C)[C@H]1CC[C@H]2[C@@H]3[C@H](O)C[C@H]4C[C@@H](NCCCNCCCCN)CC[C@]4(C)[C@H]3CC[C@]12C)OS(=O)(=O)O (single isomer, unassigned) [squalamine (ENT-01)]
Diarrhea, common adverse events by dose ([1]; Stage 1, 25 mg): 1
Nausea, common adverse events by dose ([1]; Stage 1, 25 mg): 0
Vomiting, common adverse events by dose ([1]; Stage 1, 25 mg): 0
Diarrhea, common adverse events by dose ([1]; Stage 1, 50 mg): 1
Nausea, common adverse events by dose ([1]; Stage 1, 50 mg): 0
Vomiting, common adverse events by dose ([1]; Stage 1, 50 mg): 0
Diarrhea, common adverse events by dose ([1]; Stage 1, 75 mg): 1
Nausea, common adverse events by dose ([1]; Stage 1, 75 mg): 0
Vomiting, common adverse events by dose ([1]; Stage 1, 75 mg): 0
Diarrhea, common adverse events by dose ([1]; Stage 1, 100 mg): 0
Nausea, common adverse events by dose ([1]; Stage 1, 100 mg): 1
Vomiting, common adverse events by dose ([1]; Stage 1, 100 mg): 1
Diarrhea, common adverse events by dose ([1]; Stage 1, 125 mg): 1
Nausea, common adverse events by dose ([1]; Stage 1, 125 mg): 2
Vomiting, common adverse events by dose ([1]; Stage 1, 125 mg): 1
Diarrhea, common adverse events by dose ([1]; Stage 1, 150 mg): 1
Nausea, common adverse events by dose ([1]; Stage 1, 150 mg): 0
Vomiting, common adverse events by dose ([1]; Stage 1, 150 mg): 0
Diarrhea, common adverse events by dose ([1]; Stage 1, 175 mg): 1
Nausea, common adverse events by dose ([1]; Stage 1, 175 mg): 1
Vomiting, common adverse events by dose ([1]; Stage 1, 175 mg): 0
Diarrhea, common adverse events by dose ([1]; Stage 1, 200 mg): 0
Nausea, common adverse events by dose ([1]; Stage 1, 200 mg): 2
Vomiting, common adverse events by dose ([1]; Stage 1, 200 mg): 0
Diarrhea, common adverse events by dose ([1]; Stage 2, 75 mg): 7
Dizziness (lightheadedness included), common adverse events by dose ([1]; Stage 2, 75 mg): 8
Nausea, common adverse events by dose ([1]; Stage 2, 75 mg): 3
Diarrhea, common adverse events by dose ([1]; Stage 2, 100 mg): 10
Dizziness (lightheadedness included), common adverse events by dose ([1]; Stage 2, 100 mg): 7
Nausea, common adverse events by dose ([1]; Stage 2, 100 mg): 12
Diarrhea, common adverse events by dose ([1]; Stage 2, 125 mg): 3
Dizziness (lightheadedness included), common adverse events by dose ([1]; Stage 2, 125 mg): 8
Nausea, common adverse events by dose ([1]; Stage 2, 125 mg): 4
Diarrhea, common adverse events by dose ([1]; Stage 2, 150 mg): 2
Dizziness (lightheadedness included), common adverse events by dose ([1]; Stage 2, 150 mg): 2
Nausea, common adverse events by dose ([1]; Stage 2, 150 mg): 11
Diarrhea, common adverse events by dose ([1]; Stage 2, 175 mg): 1
Dizziness (lightheadedness included), common adverse events by dose ([1]; Stage 2, 175 mg): 0
Nausea, common adverse events by dose ([1]; Stage 2, 175 mg): 12
Diarrhea, common adverse events by dose ([1]; Stage 2, 200 mg): 3
Nausea, common adverse events by dose ([1]; Stage 2, 200 mg): 6
Diarrhea, common adverse events by dose ([1]; Stage 2, 225 mg): 3
Nausea, common adverse events by dose ([1]; Stage 2, 225 mg): 1
Diarrhea, common adverse events by dose ([1]; Stage 2, 250 mg): 2
Course of all other AEs ([1]; both stages): resolved spontaneously without discontinuation
AUC(0-t) ([2]; in vivo, 25 mg, Stage 1, 25 mg oral, 9 patients, read-out: AUC0-8hr): 10.8 ng·h/mL
AUC(0-t) ([2]; in vivo, 25 mg, Stage 1, 25 mg oral, 9 patients, read-out: AUC0-16hr): 19.6 ng·h/mL
half-life ([2]; in vivo, 25 mg, Stage 1, 25 mg oral, n = 3, read-out: T½ (converted)): 2.6 h
Cmax [2, 6]: 3.73 ng/mL
AUC(0-t) ([2]; in vivo, 50 mg, Stage 1, 50 mg oral, 10 patients, read-out: AUC0-8hr): 18.5 ng·h/mL
AUC(0-t) ([2]; in vivo, 50 mg, Stage 1, 50 mg oral, 10 patients, read-out: AUC0-16hr): 33.1 ng·h/mL
Tmax [2, 6]: 2 h
half-life ([2]; in vivo, 50 mg, Stage 1, 50 mg oral, n = 3, read-out: T½ (converted)): 3.4 h
Cmax [2, 7]: 17.7 ng/mL
AUC(0-t) ([2]; in vivo, 100 mg, Stage 2, 100 mg oral daily, 4 patients (2 visits each), read-out: AUC0-8 hr): 70.3 ng·h/mL
Tmax [2, 7]: 1 h
half-life ([2]; in vivo, 100 mg, Stage 2, 100 mg oral daily, n = 5, read-out: T1/2 (converted)): 4.8 h
AUC(0-t) ([2]; in vivo, 150 mg, Stage 1, 150 mg oral, 7 patients, read-out: AUC0-8hr): 31.5 ng·h/mL
AUC(0-t) ([2]; in vivo, 150 mg, Stage 1, 150 mg oral, 7 patients, read-out: AUC0-16hr): 64 ng·h/mL
Tmax ([2]; in vivo, 150 mg, Stage 1, 150 mg oral, 7 patients): 2 h
half-life ([2]; in vivo, 150 mg, Stage 1, 150 mg oral, n = 4, read-out: T½ (converted)): 5.6 h
Cmax [2, 8]: 10.3 ng/mL
AUC(0-t) ([2]; in vivo, 175 mg, Stage 1, 175 mg oral, 7 patients, read-out: AUC0-8hr): 49.7 ng·h/mL
Tmax [2, 8]: 2 h
half-life ([2]; in vivo, 175 mg, Stage 1, 175 mg oral, n = 6, read-out: T½ (converted)): 9.1 h
Cmax [2, 9]: 11.8 ng/mL
AUC(0-t) ([2]; in vivo, 175 mg, Stage 2, 175 mg oral daily, 5 patients (2 visits each), read-out: AUC0-8 hr): 66.8 ng·h/mL
Tmax [2, 9]: 2 h
half-life ([2]; in vivo, 175 mg, Stage 2, 175 mg oral daily, n = 6, read-out: T1/2 (converted)): 10 h
Cmax [2, 10]: 2.84 ng/mL
Tmax [2, 10]: 1 h
Cmax [2, 11]: 4.33 ng/mL
AUC(0-t) ([2]; plasma, 75 mg, Stage 1, 75 mg oral, 9 patients, read-out: AUC0-8hr): 18.4 ng·h/mL
AUC(0-t) ([2]; plasma, 75 mg, Stage 1, 75 mg oral, 9 patients, read-out: AUC0-16hr): 29.8 ng·h/mL
Tmax [2, 11]: 2 h
half-life ([2]; plasma, 75 mg, Stage 1, 75 mg oral, n = 2, read-out: T½ (converted)): 2.8 h
Cmax [2, 12]: 10 ng/mL
AUC(0-t) ([2]; plasma, 75 mg, Stage 2, 75 mg oral daily, 1 patient (2 visits), read-out: AUC0-8 hr): 59 ng·h/mL
Tmax [2, 12]: 3 h
half-life ([2]; plasma, 75 mg, Stage 2, 75 mg oral daily, n = 1, read-out: T1/2 (converted)): 5.5 h
Cmax [2, 13]: 6.18 ng/mL
AUC(0-t) ([2]; plasma, 100 mg, Stage 1, 100 mg oral, 9 patients, read-out: AUC0-8hr): 29.6 ng·h/mL
AUC(0-t) ([2]; plasma, 100 mg, Stage 1, 100 mg oral, 9 patients, read-out: AUC0-16hr): 51.5 ng·h/mL
Tmax [2, 13]: 2 h
half-life ([2]; plasma, 100 mg, Stage 1, 100 mg oral, n = 5, read-out: T½ (converted)): 3.9 h
Cmax [2, 14]: 9.63 ng/mL
AUC(0-t) ([2]; plasma, 125 mg, Stage 1, 125 mg oral, 9 patients, read-out: AUC0-8hr): 43.1 ng·h/mL
AUC(0-t) ([2]; plasma, 125 mg, Stage 1, 125 mg oral, 9 patients, read-out: AUC0-16hr): 77.7 ng·h/mL
Tmax [2, 14]: 2 h
half-life ([2]; plasma, 125 mg, Stage 1, 125 mg oral, n = 4, read-out: T½ (converted)): 3.9 h
Cmax ([2]; plasma, 150 mg, Stage 1, 150 mg oral, 7 patients): 6.27 ng/mL
AUC(0-t) ([2]; plasma, 175 mg, Stage 1, 175 mg oral, 7 patients, read-out: AUC0-16hr): 91.2 ng·h/mL
Cmax [2, 15]: 15.1 ng/mL
AUC(0-t) ([2]; plasma, 200 mg, Stage 1, 200 mg oral, 6 patients, read-out: AUC0-8hr): 78.3 ng·h/mL
AUC(0-t) ([2]; plasma, 200 mg, Stage 1, 200 mg oral, 6 patients, read-out: AUC0-16hr): 157 ng·h/mL
Tmax [2, 15]: 2 h
half-life ([2]; plasma, 200 mg, Stage 1, 200 mg oral, n = 5, read-out: T½ (converted)): 9 h
bioavailability ([2]; plasma, Stage 1, oral dosing up to 200 mg (114 mg/m^2), compared with prior phase 1 IV data, read-out: Approximate oral bioavailability): ~0.1%
Dose beyond which total sleep time was consistently higher than baseline ([3]; Stage 2): > 125 mg
Total sleep time ([3]; at 250 mg, baseline 7.1 hours): 8.4 h
Frequency of arm or leg thrashing (sleep diary) ([3]; at maximal dose, baseline 2.2): 0 episodes/week
Formation of aggregates of αS [4]: inhibits the formation of αS aggregates
Gastrointestinal motility [5]: restores gastrointestinal motility
